According to patent publication US20200261391A1, “METHODS OF REDUCING THE RISK OF A CARDIOVASCULAR EVENT IN A STATIN-TREATED SUBJECT BY INCREASING SERUM AND PLASMA EPA AND DPA LEVELS” (Amarin Pharmaceuticals Ireland Limited, priority 2019, published 2020):
Several values for one entry are separate records, joined by “and”; a condition that tells them apart may be missing. Equal entries are not always repeated.

Key:
Format in all cases: in vivo, human
[1] = test system: patients with elevated triglyceride levels on statin therapy; test: REDUCE-IT recurrent and total ischemic events (Example 2; Andersen-Gill and Wei-Lin-Weissfeld models); conditions: for total key secondary endpoint events, HR / total key secondary endpoint events, number: without adjustment for stratification differences
Excerpt: The following study was a multi-center, placebo-controlled clinical trial the details of which are described above in Example 1, the REDUCE-IT design. […] Randomization was stratified by cardiovascular risk cohort (i.e., secondary or primary prevention), use of ezetimibe, and by geographic region.
The primary outcome for the study was total recurrent events consisting of the composite of cardiovascular death, nonfatal myocardial infarction, nonfatal stroke, coronary revascularization, or hospitalization for unstable angina. Recurrent event analyses were also performed for the key secondary endpoint, a composite of cardiovascular death, non-fatal myocardial infarction, or non-fatal stroke. For each of these composite endpoints, the effects of icosapent ethyl in the secondary and primary prevention strata were examined separately.
Demographic and baseline disease characteristics are presented using frequencies and percentages for categorical variables and medians with interquartile ranges for continuous variables. Between treatment group comparisons were derived using the chi-square test for categorical variables and Wilcoxon rank test for continuous variables. All clinical endpoint events used in the efficacy analyses were adjudicated by an independent Clinical Endpoint Committee (CEC) who were blinded to the treatment assignment. Since the primary efficacy endpoint was the time from randomization to the first occurrence of any component of the composite endpoint, and recurrence of such events within each patient is possible, a pre-specified analysis using a Cox proportional-hazard with the counting-process formulation of Andersen and Gill was performed to model the first and all recurrent cardiovascular events. Hazard ratios (HR) and corresponding 95% confidence intervals (CI) are reported from this model. In addition, as a marginal model and an extension of survival models based on the Cox proportional hazard model, the modified Wei-Lin-Weissfeld (WLW) method for analysis of recurrent events in the presence of deaths was carried out as a supportive analysis. In addition, as pre-specified, a recurrent event analysis using the Andersen-Gill and Wei-Lin-Weissfeld methods were carried out for the individual primary event components other than CV death. Though not pre-specified, additional recurrent event analyses were performed for the key secondary endpoint, which is a composite of CV death, non-fatal MI, or non-fatal stroke, and for the primary endpoint and the key secondary endpoint in the primary and secondary prevention strata to explore further the consistency of clinical benefit of icosapent ethyl. In subgroup analyses of the two cardiovascular risk strata (i.e., primary and secondary prevention), site-level discrepancies in cardiovascular risk group assignment occurring at entry and detected during the study (1.8%) were adjusted to conform with documented medical history data prior to randomization. All efficacy analyses were performed according to the intention-to-treat principle. All tests were based on a 2-sided nominal significance level of 5% with no adjustments for multiple comparisons.

[2] = test system: patients with elevated triglyceride levels on statin therapy; test: REDUCE-IT endpoints by pooled (icosapent ethyl and placebo) EPA/AA ratio tertile; conditions: icosapent ethyl and placebo pooled
Excerpt: (§1) The objective of this study is to assess the effects of administering icosapent ethyl at 4 g per day to patients from the REDUCE-IT trial of Example 1. More specifically, patients from the REDUCE-IT trial of Example 1 were stratified by their EPA levels into one of three tertiles. Following stratification, the objective was to determine if the RRR differs between patients having EPA levels in the three different tertiles. For the data collected as shown in Tables 38-43 and FIGS. 52, 53, and 56-59, the tertiles were established based on data collected from subjects at 1 year, 2 years, and last visit following icosapent ethyl administration compared to placebo. Data are presented as an average of 1 year, 2 year, […], and end of study values. The data was further analyzed use both pooled and unpooled statistically methods.
Placebo and icosapent ethyl treated subjects were pooled and stratified based on EPA/AA tertiles with […], […], and the highest […]

[3] = test system: patients with elevated triglyceride levels on statin therapy; test: REDUCE-IT endpoints by EPA/AA ratio tertile in the icosapent ethyl group compared to placebo
Experimental: This is a study aimed towards determining a relative risk reduction (RRR) between subjects stratified by EPA tertiles in the REDUCE-IT clinical trial described above in Example 1. Samples were obtained from those subjects and total EPA and AA levels in human serum and plasma samples were determined according at least to the methods described in Example 7.
as §1

[4] = test system: patients with elevated triglyceride levels on statin therapy; test: REDUCE-IT endpoints by pooled (icosapent ethyl and placebo) EPA blood level tertile; conditions: icosapent ethyl and placebo pooled
Excerpt: as §1
(0.84 for lowest vs. placebo, 0.72 for middle vs. placebo, and 0.65 for highest vs. placebo).

[5] = Wei-Lin-Weissfeld model, vs placebo
[6] = per 100 patients treated for five years
[7] = highest >0.395187 vs lowest ≤0.084337
[8] = highest >0.395187 vs middle >0.084337 to ≤0.395187
[9] = middle >0.084337 to ≤0.395187 vs lowest ≤0.084337
[10] = EPA/AA >0.373068 to ≤0.727974, on-treatment average
[11] = EPA/AA >0.727974, on-treatment average
[12] = highest >118.1 μg/mL vs lowest ≤31.305 μg/mL
[13] = highest >118.1 μg/mL vs middle >31.305 to ≤118.1 μg/mL
[14] = middle >31.305 to ≤118.1 μg/mL vs lowest ≤31.305 μg/mL

## CC/C=C\C/C=C\C/C=C\C/C=C\C/C=C\CCCC(=O)OCC [icosapent ethyl, eicosapentaenoic acid ethyl ester]
[1]; Example 2
  first events, reduction: 25%
  second events, reduction: 28%
  third or more events, reduction: 50%
  total events for primary composite efficacy outcome, relative risk reduction: 32%
[1]; [5]
  first occurrence of primary composite endpoint, HR: 0.75
  second occurrence of primary composite endpoint, HR: 0.72
[1]; in vivo
  additional primary endpoint events, total reduction vs placebo (number): 179
  first primary endpoint events, total reduction vs placebo (number): 196
  second primary endpoint events, total reduction vs placebo (number): 164
[1]; overall trial, placebo 1,724
  total primary endpoint events, number: 1,185
[1]; overall, placebo 861
  total key secondary endpoints, number: 590
[1]; overall, vs placebo
  total key secondary endpoints, HR: 0.71
[1]; [6]
  cardiovascular deaths prevented: 1
  coronary revascularizations prevented: 8
  episodes of unstable angina prevented: 2
  myocardial infarctions prevented: 4
  strokes prevented: 1
[1]; placebo 360
  additional primary endpoint events, number: 131
[1]; placebo 463
  second primary endpoint events, number: 299
[1]; placebo 901
  first primary endpoint events, number: 705
[1]; primary prevention stratum
  total key secondary endpoints, HR: 0.71
[1]; primary prevention stratum, adjusted stratification
  total primary endpoint events, HR: 0.79
[1]; primary prevention stratum, adjusted stratification, placebo 256
  total primary endpoint events, number: 197
[1]; primary prevention stratum, without adjusting for stratification differences
  total primary endpoint events, HR: 0.86
[1]; primary prevention stratum, without adjusting for stratification differences, placebo 263
  total primary endpoint events, number: 221
[1]; primary prevention
  total key secondary endpoint events, HR: 0.78
[1]; primary prevention, placebo 142
  total key secondary endpoint events, number: 112
[1]; secondary prevention stratum
  total key secondary endpoints, HR: 0.70
  total key secondary endpoint events, HR: 0.69
[1]; secondary prevention stratum, adjusted stratification
  total primary endpoint events, HR: 0.66
[1]; secondary prevention stratum, adjusted stratification, placebo 1,468
  total primary endpoint events, number: 988
[1]; secondary prevention stratum, without adjusting for stratification differences
  total primary endpoint events, HR: 0.65
[1]; secondary prevention stratum, without adjusting for stratification differences, placebo 1,461
  total primary endpoint events, number: 964
[1]; secondary prevention stratum, placebo 671
  total key secondary endpoint events, number: 478
[1]; vs placebo, overall trial
  total primary endpoint events, HR: 0.68
[2]; [7]
  HR (95% CI), Key Secondary Endpoint, pooled EPA/AA ratio tertiles, Highest vs Lowest: 0.57 (0.48,0.68)
  HR (95% CI), Primary Endpoint, pooled EPA/AA ratio tertiles, Highest vs Lowest: 0.64 (0.56, 0.73)
[2]; [8]
  HR (95% CI), Key Secondary Endpoint, pooled EPA/AA ratio tertiles, Highest vs Middle: 0.75 (0.63, 0.89)
  HR (95% CI), Primary Endpoint, pooled EPA/AA ratio tertiles, Highest vs Middle: 0.84 (0.73, 0.96)
[2]; [9]
  HR (95% CI), Key Secondary Endpoint, pooled EPA/AA ratio tertiles, Middle vs Lowest: 0.76 (0.65, 0.89)
  HR (95% CI), Primary Endpoint, pooled EPA/AA ratio tertiles, Middle vs Lowest: 0.77 (0.67, 0.87)
[3]; EPA/AA >0.373068 to ≤0.727974
  key secondary endpoint HR, middle EPA/AA tertile vs. placebo: 0.61
  primary endpoint HR, middle EPA/AA tertile vs. placebo: 0.70
[3]; [10]
  HR (95% CI), Key Secondary Endpoint, Middle EPA/AA ratio tertile vs Placebo: 0.61 (0.49, 0.75)
  HR (95% CI), Primary Endpoint, Middle EPA/AA ratio tertile vs Placebo: 0.70 (0.59, 0.82)
[3]; EPA/AA >0.727974
  key secondary endpoint HR, highest EPA/AA tertile vs. placebo: 0.65
  primary endpoint HR, highest EPA/AA tertile vs. placebo: 0.67
[3]; [11]
  HR (95% CI), Key Secondary Endpoint, Highest EPA/AA ratio tertile vs Placebo: 0.65 (0.54, 0.80)
  HR (95% CI), Primary Endpoint, Highest EPA/AA ratio tertile vs Placebo: 0.67 (0.57, 0.79)
[3]; EPA/AA ≤0.373068
  key secondary endpoint HR, lowest EPA/AA tertile vs. placebo: 0.94
  primary endpoint HR, lowest EPA/AA tertile vs. placebo: 0.83
[3]; EPA/AA ≤0.373068, on-treatment average
  HR (95% CI), Key Secondary Endpoint, Lowest EPA/AA ratio tertile vs Placebo: 0.94 (0.78, 1.13)
[3]; FIG. 55, ITT, EPA/AA >0.7403
  primary endpoint HR, highest EPA/AA tertile vs. placebo: 0.70 and 0.63
[3]; FIG. 55, ITT, EPA/AA ≤0.3845
  primary endpoint HR, lowest EPA/AA tertile vs. placebo: 0.88
[4]; [12]
  HR (95% CI), Key Secondary Endpoint, pooled EPA tertiles, Highest vs Lowest: 0.61 (0.51, 0.71)
  HR (95% CI), Primary Endpoint, pooled EPA tertiles, Highest vs Lowest: 0.65 (0.57, 0.74)
[4]; [13]
  HR (95% CI), Key Secondary Endpoint, pooled EPA tertiles, Highest vs Middle: 0.78 (0.65, 0.92)
  HR (95% CI), Primary Endpoint, pooled EPA tertiles, Highest vs Middle: 0.80 (0.70, 0.92)
[4]; [14]
  HR (95% CI), Key Secondary Endpoint, pooled EPA tertiles, Middle vs Lowest: 0.78 (0.67, 0.91)
  HR (95% CI), Primary Endpoint, pooled EPA tertiles, Middle vs Lowest: 0.81 (0.71, 0.92)
